From publication PMC7821181, “MS Binding Assays for Glycine Transporter 2 (GlyT2) Employing Org25543 as Reporter Ligand” (Chemmedchem, 2020)
Entries after “also recorded” stand apart in the source; their conditions may differ. Like-named read-outs stand apart in the source and are kept apart here.

Experiments:
hGlyT2 = molecular target: T1, hGlyT2 (Homo sapiens, UniProt Q9Y345); test: GlyT2 MS Binding Assays: competition experiments with Org25543 as reporter ligand; conditions: for affinity / inhibition of Org25543 binding, in words: up to highest concentration (sarcosine, L-serine, DL-leucine mM; Org24598 300 μM; LY2365109 10 μM; ALX5407 600 μM); for completeness of displacement of Org25543 from GlyT2, in words: up to the highest concentration investigated (glycine 1 M)
T1 construct: host or cells: HEK293 cells stably expressing hGlyT2; crude membrane fractions
T1 sequence (Q9Y345 1-797): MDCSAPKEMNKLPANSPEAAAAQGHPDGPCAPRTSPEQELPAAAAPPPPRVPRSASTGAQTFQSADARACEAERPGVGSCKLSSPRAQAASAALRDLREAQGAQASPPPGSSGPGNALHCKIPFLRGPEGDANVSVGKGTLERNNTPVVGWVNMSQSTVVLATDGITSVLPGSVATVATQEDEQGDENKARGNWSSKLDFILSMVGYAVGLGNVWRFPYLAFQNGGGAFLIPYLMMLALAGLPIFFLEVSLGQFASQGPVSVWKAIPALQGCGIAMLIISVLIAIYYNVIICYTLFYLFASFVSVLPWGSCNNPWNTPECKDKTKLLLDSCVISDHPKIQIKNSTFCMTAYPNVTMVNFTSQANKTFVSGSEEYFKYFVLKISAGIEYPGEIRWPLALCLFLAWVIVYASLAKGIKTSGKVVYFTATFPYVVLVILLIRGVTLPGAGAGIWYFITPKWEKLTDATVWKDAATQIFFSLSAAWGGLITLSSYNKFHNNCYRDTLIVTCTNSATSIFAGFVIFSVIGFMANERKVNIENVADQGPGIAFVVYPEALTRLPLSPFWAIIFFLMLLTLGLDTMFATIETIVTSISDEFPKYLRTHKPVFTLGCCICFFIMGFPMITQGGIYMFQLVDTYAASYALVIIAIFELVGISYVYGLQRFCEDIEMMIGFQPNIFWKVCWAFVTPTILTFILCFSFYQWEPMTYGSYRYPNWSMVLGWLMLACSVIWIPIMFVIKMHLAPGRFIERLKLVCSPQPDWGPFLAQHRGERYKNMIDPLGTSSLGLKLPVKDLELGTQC
Description: For the development of the desired competitive MS Binding Assay, the general concept of this kind of binding experiments was followed, in which the affinity of a test compound is delineated from its potency to compete out a reporter ligand, in our case Org25543, from its target binding site. Accordingly, the target protein was incubated with a defined concentration of the reporter ligand and increasing concentration of the individual test compound. In detail, the competitors were studied at seven different concentration levels, which covered about three concentration log units, whereas the concentration of Org25543 was fixed to 10 nM. Thereafter, via the developed LC‐ESI‐MS/MS method the amount of bound marker (total binding) was determined for the samples obtained from the individual incubation mixtures by the common workup for MS Binding Assays. Nonspecific binding was again determined in a set of analogous experiments in which GlyT2 membrane fractions were replaced by material subjected to a heat‐shock before. The resulting amount of Org25543 binding was defined as 0 % level of specific reporter ligand binding. […] The thus determined IC50 values were finally used to calculate the corresponding K i values by means of the Cheng‐Prusoff equation.
For preparation of GlyT2 membrane preparations HEK293 cells, stably expressing the hGlyT2 with a confluence ≥90 %, were used (kindly provided by AbbVie (Wiesbaden, Germany)). As cell culture medium DMEM containing 10 % fetal bovine serum (m/v), 100 U mL^−1 penicillin, 100 μg mL^−1 streptomycin and […] hygromycin B was used and the cells were cultivated in dishes (143 cm^2) at 37 °C and 8 % CO2. The cells were detached from the dish by aspirating the medium, adding 12 mL cell culture medium without hygromycin B and pipetting the medium several times until the cell lawn was completely detached. Subsequently, the cells were washed twice with PBS (5 min, 1600 rpm, Biofuge Stratos, rotor: #3047, Heraeus, Hanau, Germany) and afterwards homogenized in incubation buffer (10 mM HEPES, 120 mM NaCl, 2 mM KCl, 1 mM MgCl2, 1 mM CaCl2, pH 7.5) using a Polytron PTA 10 S (Kinematica Polytron, Littau‐Luzern, Switzerland). After homogenization aliquots of about 1 mg protein were frozen and stored at −80 °C. To determine the amount of protein in the membrane preparation (after treatment with 100 mM NaOH for 1 h) the protein determination according to Bradford ^[63] was applied, using bovine serum albumin as standard for calibration. At the day of the assay the membrane preparation was rapidly thawed, diluted in 20 mL incubation buffer and centrifuged at 4 °C for 20 min at 20 500 rpm (Sorvall Evolution RC, rotor: SS34, Thermo. Electron, Hanau, Germany). Finally, the resulting pellet was resuspended in 6 mL incubation buffer yielding a protein concentration of ∼0.1–0.2 mg mL^−1.
In polypropylene 96‐well plates (1.2 mL well volume, Sarstedt) membrane preparations (∼5–10 μg protein) were incubated in the presence of the reporter ligand and, if required, test compounds in incubation buffer (10 mM HEPES, 120 mM NaCl, 2 mM KCl, 1 mM MgCl2, 1 mM CaCl2, pH 7.5) in a total volume of 250 μL at 37 °C in a Julabo SW‐20 C water bath (Julabo GmbH, Seelbach, Germany) for 1 h (every sample was prepared in triplicates). After the incubation 210 μL aliquots of the binding samples were transferred by means of a 12‐channel pipette onto 96‐well glass fiber filter plates (AcroPrep Advance, glass fiber, 1.0 μm, 350 μL; Pall Corporation, Port Washington, NY, USA) where the incubation was terminated by vacuum filtration (the samples were transferred and the incubation was terminated row after row; Multi Well Plate Vacuum Manifold, Pall, Dreieich, Germany).

GlyT2 = conditions: cited from earlier work; for pIC50 (literature; calcd): calcd from literature IC50; for IC50: read-out: Biological activity, IC50 (literature)
[1] = read-out: Affinity, pKi (GlyT2 MS Binding Assays) (converted)

In the case of `CC(C)CC(N)C(=O)O` (racemic) [DL‐leucine], the “remaining Org25543 binding (% of specific binding) at the highest compound concentration” value (hGlyT2; compound 10 mM, Org25543 10 nM) is reported as 99±3%, the Ki (hGlyT2; [1]) is reported as greater than 4270 µM and the “affinity / inhibition of Org25543 binding, in words” value (“affinity / inhibition” below) (hGlyT2) is reported as “no inhibition of Org25543 binding to more than 50%”.

For `O=C(O)C1CCCN1` (racemic) [DL‐proline], the Ki (hGlyT2; [1]) is given as 31600 µM, the “completeness of displacement of Org25543 from GlyT2, in words” value (“completeness of displacement of Org25543” below) (hGlyT2) is given as “not able to displace Org25543 completely” and the “Glycine uptake in presence of 1 mM competitor (% of control)” value (from here on “Glycine uptake … (% of control)”) (GlyT2) is given as 95±5 %^[47],[c].

With `CN(CC[C@@H](Oc1ccc(-c2ccccc2)cc1)c1ccc(F)cc1)CC(=O)O` [ALX5407, N‐[(3R)‐3‐([1,1′‐biphenyl]‐4‐yloxy)‐3‐(4‐fluorophenyl)propyl]‐N‐methylglycine] the IC50 (hGlyT2) was greater than 600 µM, the “remaining Org25543 binding (% of specific binding) at the highest compound concentration” value (hGlyT2; compound 600 μM, Org25543 10 nM) was 90±5% and the Ki (hGlyT2; [1]) was greater than 257 µM. For the same compound, the “affinity / inhibition” value (hGlyT2) was “hardly a reduction of Org25543 binding”, the “pIC50 (literature; calcd)” value (GlyT2; ref 40) was 5.74 and the “pIC50 (literature; calcd)” value (GlyT2; ref 54) was less than 4. For the same compound, the IC50 (GlyT2; ref 40) was 1.8 µM and the IC50 (GlyT2; ref 54) was greater than 100 µM.

For `CC(C)c1nnc(-c2ccc(-c3ccccc3)nc2)n1-c1cccc2nonc12` [ASP2535, 4‐[3‐(1‐methylethyl)‐5‐(6‐phenyl‐3‐pyridinyl)‐4H‐1,2,4‐triazol‐4‐yl]‐2,1,3‐benzoxadiazole], the Ki (hGlyT2; [1]) is listed as 1.02 µM, the “pIC50 (literature; calcd)” value (GlyT2; ref 56) is listed as 5.34 and the IC50 (GlyT2; ref 56) is listed as 4.6 ± 0.29 µM.

In the case of `CN(CCC(Oc1ccc(C(=O)c2nccs2)cc1)c1ccc(Cl)cc1)CC(=O)O` (stereo not shown) [CP‐802,079, N‐[3‐(4‐chlorophenyl)‐3‐[4‐(2‐thiazolylcarbonyl)phenoxy]propyl]‐N‐methyl‐glycine], the Ki (hGlyT2; [1]) is given as 22.9 µM, the “pIC50 (literature; calcd)” value (GlyT2; ref 55) is given as less than 5 and the IC50 (GlyT2; ref 55) is given as greater than 10 µM.

With `CN(CCOc1ccc(-c2ccc3c(c2)OCO3)cc1C(C)(C)C)CC(=O)O` [LY2365109, N‐[2‐[4‐(1,3‐benzodioxol‐5‐yl)‐2‐(1,1‐dimethylethyl)‐phenoxy]ethyl]‐N‐methylglycine] the “remaining Org25543 binding (% of specific binding) at the highest compound concentration” value (hGlyT2; compound 10 μM, Org25543 10 nM) was 94±10%, the Ki (hGlyT2; [1]) was greater than 4.27 µM and the “affinity / inhibition” value (hGlyT2) was “hardly any affinity”. For the same compound, the “pIC50 (literature; calcd)” value (GlyT2; ref 57) was less than 4.52 and the IC50 (GlyT2; ref 57) was greater than 30 µM.

For `N[C@@H](CO)C(=O)O` [L‐serine], the “remaining Org25543 binding (% of specific binding) at the highest compound concentration” value (hGlyT2; compound 180 mM, Org25543 10 nM) was 97±4%, the Ki (hGlyT2; [1]) was greater than 77600 µM and the “affinity / inhibition” value (hGlyT2) was “no inhibition of Org25543 binding to more than 50%”. For the same compound, the “Glycine uptake … (% of control)” value (GlyT2) was 89±7 %^[47],[c].

For `CCCCCCCC/C=C\CCCCCCCC(=O)NCC(=O)O` [N‐oleoylglycine, N‐(1‐oxo‐9‐octadecenyl)‐(Z)‐glycine], the Ki (hGlyT2; [1]) is listed as 2.34 µM, the “completeness of displacement of Org25543” value (hGlyT2) is listed as “not able to displace Org25543 completely” and the “pIC50 (literature; calcd)” value (GlyT2; ref 19) is listed as 6.30. For the same compound, the IC50 (GlyT2; ref 19) was 0.5 µM.

With `CN(CC[C@@H](Oc1ccc(C(F)(F)F)cc1)c1ccccc1)CC(=O)O` [Org24598, N‐methyl‐N‐[(3R)‐3‐phenyl‐3‐[4‐(trifluoromethyl)phenoxy]propyl]glycine] the “remaining Org25543 binding (% of specific binding) at the highest compound concentration” value (hGlyT2; compound 300 μM, Org25543 10 nM) was 101±5%, the Ki (hGlyT2; [1]) was greater than 129 µM and the “affinity / inhibition” value (hGlyT2) was “hardly any affinity”. The “pIC50 (literature; calcd)” value (GlyT2; ref 53) was less than 4 and the IC50 (GlyT2; ref 53) was greater than 100 µM.

In the case of `CN(C)CCCN1c2ccccc2Sc2ccc(Cl)cc21` [chlorpromazine], the Ki (hGlyT2; [1]) is given as 28.2 µM, the “pIC50 (literature; calcd)” value (GlyT2; ref 58) is given as 4.68 and the IC50 (GlyT2; ref 58) is given as 21 ± 4 µM.

For `COC(=O)CN` [glycine methyl ester], the Ki (hGlyT2; [1]) is given as 77600 µM and the “Glycine uptake … (% of control)” value (GlyT2) is given as 84±5 %^[47],[c].

With `NCC(=O)O` [glycine] the “Affinity, pKi (GlyT2 MS Binding Assays)” value (hGlyT2; Org25543 10 nM, 37 °C, 1 h, mean±SEM, n=3–5, bounds in brackets where less than 50 % inhibition) was 1.98±0.08, the Ki (hGlyT2; approximate value, read-out: Ki at GlyT2 in competition experiments) was roughly 10000 µM and the “completeness of displacement of Org25543” value (hGlyT2) was “not able to displace Org25543 completely; also recorded: cannot completely displace Org25543”. For the same compound, the EC50 (GlyT2; K m and EC50 values, read-out: Biological activity (literature): K m and EC50 values) was 6 to 1800 µM.

For `CNCC(=O)O` [sarcosine], the “remaining Org25543 binding (% of specific binding) at the highest compound concentration” value (hGlyT2; compound 2.2 mM, Org25543 10 nM) was 98±6%, the Ki (hGlyT2; [1]) was greater than 933 µM and the “affinity / inhibition” value (hGlyT2) was “no inhibition of Org25543 binding to more than 50%”. The “pIC50 (literature; calcd)” value (GlyT2; ref 22) was less than 3 and the IC50 (GlyT2; ref 22) was greater than 1000 µM.
